Experimental data published in patent publication US20250136568A1, “FUSED HETEROCYCLIC COMPOUNDS AS PI3KALPHA INHIBITORS” (Nanjing Zenshine Pharmaceuticals Co., Ltd., priority 2021, published 2025).
Where two headings read alike, the source gives them in different places.

What was measured:
Type in all cases: cell-based
[1] = system: PI3Kα H1047R mutation cell line MDA-MB-453; test: Cell Proliferation IC50 Assay (CellTiter-Glo), MDA-MB-453; settings: Homo sapiens; MDA-MB-453 (H1047R), 72 hours, CellTiter-Glo; read-out: IC50 (μM) MDA-MB-453
Source text: (§1) PI3Kα H1047R mutation cell line T-47D and MDA-MB-453, E545K mutation cell line MDA-MB-361 and PI3Kα wide type cell line SK-BR-3 were purchased from Cobioer Biotech (cat. no CBP60397, CBP60386, CBP60383 and CBP60413 respectively). The CellTiter-Glo Direct Cell Proliferation Assay Kit was purchased from Prornega (cat. No. G7573)
(§2) For cell proliferation assay in each cell line: • a. Prepare complete medium (R PMI 1640, DMEM or McCoys): Add FBS and appropriate additives according to the information sheet provided by the vendor. Mix gently. • b. Prepare single cell suspension and count the cell numbers and adjust cells to appropriate density. • c. Add 80 μL of cell suspension to 96-well opaque-walled clear bottom plates according to the planned plate layout and place the plates in the CO2 incubator overnight. • d. Prepare intermediate plate: 10 μl of diluted test compounds or staurosporine solution (200×) is added to a 96 deep well plate. Then 390 μl of culture medium without FBS is added to the respective wells. • e. Transfer 20 μL of the solutions from the above intermediate plate to the wells of the plate prepared containing 80 μL of the culture medium and cells. The total dilution is 200 folds. • f. The cells were then incubated at 5% CO2, 37° C. for 72 hours. • g. Equilibrate the plate and its contents to room temperature for approximately 30 minutes. • h. Add 100 μL of CellTiter-Glo reagent to the assay plate • i. Mix contents for 10 minutes on an orbital shaker to induce cell lysis. • j. Allow the plate to incubate at room temperature for 10 minutes to stabilize luminescent signal, • k. Paste the clear bottom with white back seal and record luminescence with Varioskan LUX plate reader.
(§3) Inhibition % and IC50 value were calculated by the formula described below: […]

[2] = system: PI3Kα wide type cell line SK-BR-3; test: Cell Proliferation IC50 Assay (CellTiter-Glo), SK-BR-3; settings: Homo sapiens, read-out: IC50 (μM) SK-BR-3
Source text: as §1, §2, §3

[3] = system: PI3Kα H1047R mutation cell line T-47D; test: Cell Proliferation IC50 Assay (CellTiter-Glo), T-47D; settings: Homo sapiens, read-out: IC50 (μM) T47D
Source text: as §1, §2, §3

[4] = SK-BR-3 (PI3Kα wild type), 72 hours, CellTiter-Glo
[5] = T47D, 72 h, T47D (H1047R), 72 hours, CellTiter-Glo

Cc1cc([C@H](C)Nc2ccccc2C(=O)O)c2oc(-c3ccc(N4CCOCC4)cc3)c(C)c(=O)c2c1 (single isomer, unassigned) [Example 53B]
IC50 [1]: 2.34 µM | IC50 [2, 4]: > 10 µM

CCN1Cc2cc(-c3cc(=O)c4cc(C)cc(C(C)Nc5ccccc5C(=O)O)c4o3)ccc2C1=O (centres unmarked) [Example 7, 2-((1-(2-(2-ethyl-1-oxoisoindolin-5-yl)-6-methyl-4-oxo-4H-chromen-8-yl)ethyl)amino)benzoic acid]
IC50 [1]: 0.25 µM | IC50 [2, 4]: > 10 µM

Cc1cc(C(C)Nc2ccccc2C(=O)O)c2oc(-c3ccc4c(c3)N(C)C(=O)C4)cc(=O)c2c1 (centres unmarked) [Example 21, 2-((1-(6-methyl-2-(1-methyl-2-oxoindolin-6-yl)-4-oxo-4H-chromen-8-yl)ethyl)amino)benzoic acid]
IC50 [1]: > 10 µM | IC50 [2, 4]: > 10 µM

Cc1cc(C(C)Nc2ccccc2C(=O)O)c2oc(-c3cccc4c3CN(C)C4=O)cc(=O)c2c1 (centres unmarked) [Example 24, 2-((1-(6-methyl-2-(2-methyl-1-oxoisoindolin-4-yl)-4-oxo-4H-chromen-8-yl)ethyl)amino)benzoic acid]
IC50 [1]: 4.07 µM | IC50 [2, 4]: > 10 µM

Cc1cc(C(C)Nc2ccccc2C(=O)O)c2oc(-c3cncs3)cc(=O)c2c1 (centres unmarked) [Example 27, 2-((1-(6-methyl-4-oxo-2-(thiazol-5-yl)-4H-chromen-8-yl)ethyl)amino)benzoic acid]
IC50 [1]: 0.74 µM | IC50 [2, 4]: > 10 µM

Cc1cc(C(C)Nc2ccccc2C(=O)O)c2oc(-c3ccc4c(c3)CN(C(C)C)C4=O)cc(=O)c2c1 (centres unmarked) [Example 44, -((1-(2-(2-isopropyl-1-oxoisoindolin-5-yl)-6-methyl-4-oxo-4H-chromen-8-yl)ethyl)amino)benzoic acid]
IC50 [1]: 0.39 µM | IC50 [2, 4]: > 10 µM

Cc1cc(C(C)Nc2ccccc2C(=O)O)c2oc(-c3ccc4c(c3)CN(C3COC3)C4=O)cc(=O)c2c1 (centres unmarked) [Example 45, 2-((1-(6-methyl-2-(2-(oxetan-3-yl)-1-oxoisoindolin-5-yl)-4-oxo-411-chromen-8-yl)ethyl)amino)benzoic acid]
IC50 [1]: 0.97 µM | IC50 [2, 4]: > 10 µM

Cc1cc(C(C)Nc2ccccc2C(=O)O)c2oc(-c3ccc4c(c3)CN(Cc3ccccc3)C4=O)cc(=O)c2c1 (centres unmarked) [Example 46, 2-((1-(2-(2-benzyl-1-oxoisoindolin-5-yl)-6-methyl-4-oxo-4H-chromen-8-yl)ethyl)amino)benzoic acid]
IC50 [1]: 0.42 µM | IC50 [2, 4]: > 10 µM

Cc1cc(C(C)Nc2ccccc2C(=O)O)c2oc(-c3ccc4c(c3)CCN(C)C4=O)cc(=O)c2c1 (centres unmarked) [Example 47, 2-((1-(6-methyl-2-(2-methyl-1-oxo-1,2,3,4-tetrahydroisoquinolin-6-yl)-4-oxo-4H-chromen-8-yl)ethyl)amino)benzoic acid]
IC50 [1]: 0.24 µM | IC50 [2, 4]: > 10 µM

Cc1cc(C(C)Nc2ccccc2C(=O)O)c2oc(-c3ccc(C(=O)N(C)C)c(C)c3)cc(=O)c2c1 (centres unmarked) [Example 48, 2-((1-(2-(4-(dimethylcarbamoyl)-3-methylphenyl)-6-methyl-4-oxo-4H-chromen-8-yl)ethyl)amino)benzoic acid]
IC50 [1]: 0.76 µM | IC50 [2, 4]: > 10 µM

Cc1cc(C(C)Nc2ccccc2C(=O)O)c2oc(-c3ccc(=O)n(C)c3)cc(=O)c2c1 (centres unmarked) [Example 50, 2-((1-(6-methyl-2-(1-methyl-6-oxo-1,6-dihydropyridin-3-yl)-4-oxo-4H-chromen-8-yl)ethyl)amino)benzoic acid]
IC50 [1]: 6.39 µM | IC50 [2, 4]: > 10 µM

Cc1cc(C(C)Nc2ccccc2C(=O)O)c2oc(-c3ccc4cn(C)nc4c3)cc(=O)c2c1 (centres unmarked) [Example 51, 2-((1-(6-methyl-2-(2-methyl-211-indazol-6-yl)-4-oxo-4H-chromen-8-yl)ethyl)amino)benzoic acid]
IC50 [1]: 2.48 µM | IC50 [2, 4]: > 10 µM

Cc1cc([C@@H](C)Nc2ccccc2C(=O)O)c2oc(-c3ccc(C4CN(C)CCO4)cc3)c(C)c(=O)c2c1 (stereo partly drawn) [Example 167, 2-(((1R)-1-(3,6-dimethyl-2-(4-(4-methylmorpholin-2-yl)phenyl)-4-oxo-4H-chromen-8-yl)ethyl)amino)benzoic acid]
IC50 ([3]; T47D (H1047R), 72 hours, CellTiter-Glo): 0.092 µM | IC50 [2, 4]: 8.34 µM

Cc1cc([C@@H](C)Nc2ccccc2C(=O)O)c2oc(-c3ccc(N4CCC[C@H](N(C)C)C4)cc3)c(C)c(=O)c2c1 [Example 168, 2-(((R)-1-(2-(4-((S)-3-(dimethylamino)piperidin-1-yl)phenyl)-3,6-dimethyl-4-oxo-41H-chromen-8-yl)ethyl)amino)benzoic acid]
IC50 [3, 5]: 0.092 µM | IC50 [2, 4]: > 10 µM

Cc1cc([C@@H](C)Nc2ccccc2C(=O)O)c2oc(-c3ccc(N4CC[C@H](N(C)C)C4)cc3)c(C)c(=O)c2c1 [Example 169, 2-(((R)-1-(2-(4-((S)-3-(dimethylamino)pyrrolidin-1-yl)phenyl)-3,6-dimethyl-4-oxo-4H-chromen-8-yl)ethyl)amino)benzoic acid]
IC50 [3, 5]: 0.11 µM | IC50 [2, 4]: > 10 µM

Cc1cc([C@@H](C)Nc2ccccc2C(=O)O)c2oc(-c3ccc(N4CC(N(C)C)C4)cc3)c(C)c(=O)c2c1 [Example 170, (R)-2-((1-(2-(4-(3-(dimethylamino)azetidin-1-yl)phenyl)-3,6-dimethyl-4-oxo-4H-chromen-8-yl)ethyl)amino)benzoic acid]
IC50 [3, 5]: 0.096 µM | IC50 [2, 4]: > 10 µM

Cc1cc([C@@H](C)Nc2ccccc2C(=O)O)c2oc(-c3ccc(OC4CN(C)C4)cc3)c(C)c(=O)c2c1 [Example 171, (R)-2-((1-(3,6-dimethyl-2-(4-((1-methylazetidin-3-yl)oxy)phenyl)-4-oxo-4H-chromen-8-yl)ethyl)amino)benzoic acid]
IC50 [3, 5]: 0.072 µM | IC50 [2, 4]: > 10 µM

Cc1cc(C(C)Nc2ccccc2P(=O)(O)O)c2oc(-c3ccc4nn(C)cc4c3)c(C)c(=O)c2c1 (centres unmarked) [Example 176]
IC50 ([3]; T47D, 72 h): > 10 µM | IC50 ([2]; SK-BR-3, 72 h): > 10 µM

Cc1cc(C(C)Nc2ccccc2-c2nc(=O)o[nH]2)c2oc(-c3ccc4nn(C)cc4c3)c(C)c(=O)c2c1 (centres unmarked) [Example 177, 3-(2-((1-(3,6-dimethyl-2-(2-methyl-2H-indazol-5-yl)-4-oxo-4H-chromen-8-yl)ethyl)amino)phenyl)-1,2,4-oxadiazol-5(2H)-one]
IC50 [3, 5]: 0.31 µM | IC50 [2, 4]: > 10 µM

Cc1cc([C@@H](C)Nc2ccc(Cl)nc2C(=O)O)c2oc(-c3ccc(-c4cnn(C)c4)nc3)c(C)c(=O)c2c1 [Example 186, (R)-6-chloro-3-((1-(3,6-dimethyl-2-(6-(1-methyl-1H-pyrazol-4-yl)pyridin-3-yl)-4-oxo-4H-chromen-8-yl)ethyl)amino)picolinic acid]
IC50 [3, 5]: 0.16 µM | IC50 [2, 4]: 8.68 µM

Cc1cc([C@@H](C)Nc2ccccc2C(=O)O)c2oc(-c3ccc(CN4CCN(C)CC4)nc3)c(C)c(=O)c2c1 [Example 188, (R)-2-((1-(3,6-dimethyl-2-(6-((4-methylpiperazin-1-yl)methyl)pyridin-3-yl)-4-oxo-4H-chromen-8-yl)ethyl)amino)benzoic acid]
IC50 [3, 5]: 0.13 µM | IC50 [2, 4]: > 10 µM

Cc1cc([C@@H](C)Nc2ccc(Cl)nc2C(=O)O)c2oc(-c3ccc(CN4CCN(C)CC4)cc3)c(C)c(=O)c2c1 [Example 189, (R)-6-chloro-3-((1-(3,6-dimethyl-2-(4-((4-methylpiperazin-1-yl)methyl)phenyl)-4-oxo-4H-chromen-8-yl)ethyl)amino)picolinic acid]
IC50 [3, 5]: 0.11 µM | IC50 [2, 4]: > 10 µM

COC(=O)c1ccccc1N[C@H](C)c1cc(C)cc2c(=O)c(C)c(-c3ccc(-c4cnn(C)c4)nc3)oc12 [Example 190, methyl (R)-2-((1-(3,6-dimethyl-2-(6-(1-methyl-1H-pyrazol-4-yl)pyridin-3-yl)-4-oxo-4H-chromen-8-yl)ethyl)amino)benzoate]
IC50 [3, 5]: 0.27 µM | IC50 [2, 4]: 6.05 µM

CNC(=O)c1ccccc1N[C@H](C)c1cc(C)cc2c(=O)c(C)c(-c3ccc(-c4cnn(C)c4)nc3)oc12 [Example 191, (R)-2-((1-(3,6-dimethyl-2-(6-(1-methyl-1H-pyrazol-4-yl)pyridin-3-yl)-4-oxo-4H-chromen-8-yl)ethyl)amino)-N-methylbenzamide]
IC50 [3, 5]: 0.27 µM | IC50 [2, 4]: 2.02 µM

Cc1cc([C@@H](C)Nc2ccccc2C(=O)O)c2oc(-c3ccc(OCCN(C)C)nc3)c(C)c(=O)c2c1 [Example 192, (R)-2-((1-(2-(6-(2-(dimethylamino)ethoxy)pyridin-3-yl)-3,6-dimethyl-4-oxo-4H-chromen-8-yl)ethyl)amino)benzoic acid]
IC50 [3, 5]: 0.1 µM | IC50 [2, 4]: > 10 µM
